Test results: patent US9464064B2, “HCV helicase inhibitors and methods of use thereof” (University of Kansas, priority 2011, dated 2016)

Key:
HCV helicase = target: T1, HCV helicase (Hepatitis C virus genotype 1b, UniProt Q9WMX2); test: MBHA with RNA substrate (HCV helicase-catalyzed RNA unwinding); type: biochemical; conditions: in words
T1 construct: truncated C-terminally His-tagged NS3 proteins lacking the N-terminal protease, called NS3h; His-tag (C); made in house
Description: All oligonucleotides were purchased from Integrated DNA Technologies (IDT, Coralville, Iowa). The partially duplex DNA substrates used in MBHAs consisted of a helicase substrate forming 25 base pairs and consists of a 45-mer bottom strand 5′-GCTCCCCGTTCATCGATTGGGGAGC(T)20-3′ (SEQ ID NO:1) and the 25-mer HCV top strand 5′-Cy5-GCTCCCCAATCGATGAACGGGGAGC-IBRQ-3′ (SEQ ID NO:2). The 19 base pair RNA substrate used in MBHAs was composed of a 39 nucleotide long bottom strand 5′-AGU GCC UUG ACG AUA CAG C(U)20-3′ (SEQ ID NO:3) and the 24 nucleotide long top strand 5′-Tye^665-AGUGCGCUGUAUCGUCAAGGCACU-IBRQSp-3′ (SEQ ID NO:4). Underlined areas denote hairpin-forming regions. DNA and RNA substrates were annealed and purified as described previously (Belon & Frick (2008) BioTechniques 45:433-40, 442).
All molecular beacon-based helicase assays (MBHAs) were performed according to known methods (Belon & Frick (2008) supra; Belon & Frick (2009) supra). […] In each flat, black 384-well plate, 56 compounds were tested, in triplicate, along with three negative controls (DMSO only), three positive controls (500 nM dT20), and two wells with no enzyme. Fluorescence was read before ATP (F0) addition and 30 minutes after ATP was added to 1 mM (F30) using a Tecan Infinite M200 fluorescence microplate reader with excitation and emission wavelengths set to 643 and 670 nm, respectively. Percent inhibition was calculated with equation 1, and compound interference in the MBHA was calculated with equation 2.
To monitor helicase reaction kinetics and to calculate IC50 values, MBHAs were performed in 60 μL in white ½ area 96-well plates and measured in a Thermo Varioscan Multimode reader (Thermo Scientific) using the 643 nm excitation wavelength and 667 emission wavelengths. […] Initial reaction velocities were calculated by fitting first-order decay equation to data obtained after ATP addition and calculating an initial velocity form the resulting amplitude and rate constant.

[1] = Hepatic microsome stability, mouse; type: in vitro ADME; conditions: percent remaining at 1 hour
Protocol: Metabolic stability was assessed in the presence of human liver microsomes (XenoTech) and mouse liver mirosomes (XenoTech). All liquid was dispensed and transfer steps were performed with the FREEDOM EVO automated liquid handler (Tecan US). NADPH, a required cofactor for CYP450 metabolism, was provided by the NADPH Regenerating System, Solutions A (BD Biosciences) and B (BD Biosciences). Compound stock solutions were initially prepared in 100% DMSO and subsequently diluted in acetonitrile for the assay. The pH of the reactions was kept at ˜7.4 with potassium phosphate buffer (BD Biosciences). The reactions were started after adding NADPH to the reaction plate containing microsomes and compounds and time 0 minutes aliquots were promptly collected and mixed with ice cold acetonitrile (spiked with internal standards) to quench the reactions. The remainder of the reaction volume was incubated at 37° C. with shaking. […] The amount of compound in the supernatant was determined by LC/MS/MS (Applied Biosystems, Sciex API4000 Q-TRAP) and the percent of parent compound remaining after 60 minutes was calculated by the following formula: % parent compound remaining=[(concentration at 60 minutes/concentration at 0 minutes)×100]. […] Results reported are the mean of each reaction triplicate, normalized to the internal standard, and expressed as a percent compound remaining after the incubation time. […]

[2] = Plasma protein binding (RED), mouse; type: in vitro ADME
Protocol: TEFLON Base Plate wells were rinsed with 20% ethanol for 10 minutes. Ethanol was then removed and wells were rinsed with ultrapure water and allowed to dry. RED (rapid equilibrium dialysis) inserts from Thermo Scientific (Pierce) were placed (open end up) into the wells of the base plate. All liquid was dispensed and transfer steps were performed with the FREEDOM EVO automated liquid handler (Tecan US). The sample chambers (red ring) contained 300 μl of a mixture of plasma and compound, and the buffer chambers received 500 μl of dialysis buffer (1×PBS, pH7.4). Duplicate inserts were made for each concentration tested. The base plate was covered with sealing tape and incubated at 37° C. on an orbital shaker at 350 rpm for 4 hours. After the incubation time, equal volumes from both chambers were removed and transferred to a 96 well plate containing either plasma or buffer. […] The amount of compound in the supernatant was determined by LC/MS/MS (Applied Biosystems, Sciex API4000 Q-Trap). The percent of free and bound compounds were calculated with the following formula: % of bound parent compound=[(amount of compound in donor-receiver/amount of compound in donor)×100]. Results reported are the mean of each reaction duplicate, normalized to the internal standard, and expressed as a percent compound bound after the incubation time. […]

HCV replicon RNA = test: HCV RNA RT-qPCR assay in replicon cells; type: cell-based, hepatitis C virus; conditions: qRT-PCR, 10 days of treatment
Protocol: For the HCV RNA reverse transciptase quantitative PCR (RT-qPCR) assay, cells were treated, washed 2 times with PBS, harvested, and collected by centrifugation (1000 g) for 5 minutes at 4° C. Total RNA was then extracted using the TRIZOL kit (Invitrogen) and suspended in 30 μL of nuclease-free water. RNA concentration was determined from A260. RT-qPCR was performed using TAQMAN probes, 1 μg total RNA and the QSCRIPT One-step Fast qRT-PCR kit (Quanta Biosciences, Gaithersburg, Md.). Reverse transcription was carried out at 50° C. for 20 minutes followed by one cycle at 95° C. for 5 minutes and 40 cycles at 95° C. for 15 seconds and 60° C. for 1 minute. […] The amount of HCV RNA in each sample was determined by first calculating the ΔCT of each sample, which was obtained by subtracting the threshold cycle (CT) obtained with the rRNA primers obtained from that of the CT with the HCV primers. ΔΔCT values were obtained by subtracting ΔCT values obtained in the presence of compound from ΔCT obtained with cells treated with DMSO only. The relative changes in HCV RNA levels were then calculated by assuming that each CT difference reflected a two-fold difference in RNA level (i.e., Expression=2^−ΔΔCT).

[3] = system: NS3 protease in Huh7.5/HCV Con1sg Rluc cells; test: IPS-1 (MAVS)-based reporter cell-based protease assay; set-up: species or system hepatitis C virus; conditions: 10 μM, 72 hours
Protocol: An IPS-1 (also known as MAVS)-based reporter assay was used for cell-based protease assay. […] RFP-NLS-IPS pseudoparticles were transduced into Huh7.5/HCV Con1sg Rluc cells in a 24-well plate containing cover slips and compounds were added to the cells after 6 hours at a 10 μM concentration and after 72 hours from the first addition, cells were fixed in 1% PFA, washed twice with PBS, mounted on glass slides and microscopic analyses were done.
Microscopy was performed with a Nikon Ti-E inverted fluorescence microscope using a 20× and 40×/NA 1.4 objective. Compounds were imaged using DAPI filter 340/40 band-pass excitation and a 435/50 band pass emission filter. For ALEXA 546 and RFP-NLS-IPS, a 528/25 nm band pass excitation filter and 590/60 nm band-pass emission filter were used. Image acquisition was performed with a Q imaging ROLERA camera and the NIS elements basic research imaging software (Nikon). […]
The assay selected (Jones, et al. (2010) supra) uses a fusion protein made from a NS3 protease cellular target called IPS-1 (also known as MAVS) fused to a red fluorescent protein (RFP) and a nuclear localization signal (NLS). Lentivirus expressing the RFP-NLS-IPS-1 was used to transduce the above Rluc subgenomic HCV replicon cell line, and the effect of compounds on the location of RFP-NLS was examined using fluorescence microscopy.

T1 sequence (Q9WMX2 1192-1657): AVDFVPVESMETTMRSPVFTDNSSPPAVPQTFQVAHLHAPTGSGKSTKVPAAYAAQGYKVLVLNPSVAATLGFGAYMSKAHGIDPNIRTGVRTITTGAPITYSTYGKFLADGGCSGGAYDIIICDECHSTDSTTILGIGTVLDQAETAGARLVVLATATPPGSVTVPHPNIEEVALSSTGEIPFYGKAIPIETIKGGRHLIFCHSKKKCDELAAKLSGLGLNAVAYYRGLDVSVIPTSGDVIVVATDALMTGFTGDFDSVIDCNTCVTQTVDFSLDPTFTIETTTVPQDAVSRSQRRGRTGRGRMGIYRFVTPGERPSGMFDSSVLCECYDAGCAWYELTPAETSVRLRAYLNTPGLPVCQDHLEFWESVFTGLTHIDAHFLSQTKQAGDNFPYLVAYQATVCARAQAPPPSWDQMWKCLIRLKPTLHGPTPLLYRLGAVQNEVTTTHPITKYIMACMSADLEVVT

Compound | effect on HCV helicase catalyzed RNA unwinding (HCV helicase) | Hepatic Microsome Stability Mouse [1] | fraction unbound at 4 h, 1 μM ([2]; pH 7.4, 1 μM, read-out: Plasma Protein Binding (% Bound) Mouse (converted)) | fraction unbound at 4 h, 10 μM ([2]; pH 7.4, 10 μM, read-out: Plasma Protein Binding (% Bound) Mouse) | decrease of HCV replicon RNA content (HCV replicon RNA) | nuclear translocation of RFP-NLS (cellular NS3 protease activity) [3]
Cc1ccc2nc(-c3ccc4nc(-c5ccc(NC(=O)c6cccc(Cl)c6)cc5)sc4c3)sc2c1S(=O)(=O)O [Compound 17, 2′-(4-(3-chlorobenzamido)phenyl)-6-methyl-[2,6′-bibenzo[d]thiazole]-7-sulfonic acid] | inhibited HCV helicase-catalyzed RNA-unwinding | 83.11% | 0.02 | 0.01 | – | –
Cc1ccc2nc(-c3ccc4nc(-c5ccc(NC(=O)c6cc(C(F)(F)F)cc(C(F)(F)F)c6)cc5)sc4c3)sc2c1S(=O)(=O)O [Compound 24, 2′-(4-(3,5-bis(trifluoromethyl)benzamido)phenyl)-6-methyl-[2,6′-bibenzo[d]thiazole]-7-sulfonic acid] | – | – | – | – | about 13 fold | did not inhibit nuclear translocation
